Where two headings read alike, the source gives them in different places.
Legend:
[1] = tested on: BET (bromodomains and extraterminal) proteins, which include BRD2, BRD3, and BRD4; conditions: U.S. 2010/0286127 A1; cited from earlier work
[2] = Dose limiting toxicity in patients with acute leukemia or hematologic malignancies; type: in vivo, human
Source text: Dose-limiting toxicity corresponds to side-effect toxicity such that the side-effects are severe enough to impose restrictions on, or to prevent administration of, the dose. Clinically significant toxicity includes but is not limited to intolerable levels in a patient of thrombocytopenia, neutropenia, fatigue, diarrhea, anemia, mucositis, and other side effects known to be associated with elevated levels of bromodomain and extraterminal protein inhibitors.
(§1) Doses of the compound of Formula (1) were administered to patients having leukemia, hematologic malignancies, diffuse large B-cell lymphoma, other lymphomas or multiple myeloma, and dose limiting toxicity and objective responses were observed.
Compound of Formula (1) dose-limiting toxicity was evaluated in patients with acute leukemia and hematologic malignancies.

[3] = Phase I dose escalation population pharmacokinetics in patients with hematologic malignancies (plasma UPLC-MS/MS, Monolix PPK model); type: in vivo, human; conditions: for CL [mean +/- SD] / V [mean +/- SD]: apparent (F set to 1); for Cmin [mean +/- SD]: predose at Day 8; for AUC(0-t): read-out: AUC0-24 hr [mean +/- SD]; for Cmax: read-out: Cmax [mean +/- SD]
Description: Solid dispersions were prepared using the compound of Formula (1) and hydroxylpropylmethylcellulose acetate succinate (HPMCAS) at both 25% and 50% of compound loading. Solid dispersions were prepared by a solvent evaporation method, using spray-drying followed by secondary drying in a low-temperature convection oven. Dispersions containing 10 mg, 20 mg, 40 mg, 80 mg, 120 mg and 160 mg, of the compound, were prepared into capsules and administered to patients Pharmacokinetics (PK) of the compound of Formula (1) as single agent were characterized in patients with hematologic malignancies, including a population pharmacokinetic modeling. A multicenter, dose escalation study in cohorts of 3 to 6 patients with acute leukemia or other hematologic malignancies was performed with a dose escalation step followed by expansion cohorts at the recommended dose. Patients received oral compound of Formula (1) from 10 to 160 mg according to different schedules. Schedules included once a day dosing with 21-day cycles, acute leukemia (AL); 14 days on/7 days off, hematologic malignancies (OHM). Continuous PK blood samples from 7 time points over 24 hours post-administration were collected on day 1 of cycle 1 for the first 3 patients per DL, and 5 time points over 8 hours post-administration for other patients at this DL. Residual sampling before administration on days 8, 15 and 22 was performed in all patients. Compound plasma concentrations were measured using validated ultra-performance liquid chromatography with tandem mass spectrometry detection with a concentration range 1-250 ng/mL, with a small plasma volume for analysis (50 μL). Analyses and population PK (PPK) modeling were performed with the nonlinear mixed effect modeling software program Monolix version 4.3. The following parameters were calculated: absorption constant (Ka); apparent distribution volume (V/F); apparent clearance (CL/F) and lean body mass (LBM; calculated considering patient sex, weight and height). Parameters were estimated by computing the maximum likelihood estimator without linearization using the stochastic approximation expectation maximization (SAEM) algorithm combined with a Markov Chain Monte Carlo (MCMC) procedure. The number of MCMC chains was fixed at 10 for all estimations. A constant error model was used to describe residual and Between-Subject Variability (BSV, η) were ascribed to an exponential model. In the absence of intravenous data, the initial bioavailability (F) was set to 1, meaning that clearance (CL) and volume of distribution (V) should be interpreted as the apparent clearance (CL/F) and apparent volume of distribution (V/F), respectively. Eighty-five patients enrolled and treated and randomized to six dose levels (10, 20, 40, 80, 120 and 160 mg) once-a-day and 40 mg twice-a-day. Among them, 81 patients with 630 plasma concentrations (607+23 BLQ) were evaluable for PK assessment. A 1-compartment open model adequately described the total compound concentration-time curve. […] The absorption phase was linear and Tmax was between 1 and 4 h. […] In the PPK study, the best descriptive model was obtained when LBM was considered in the analysis. A correlation between CL/F and V/F was also observed for compound. A total of 81 patients (52 male, 29 female) were evaluable for PK (40 AL patients, 41 OHM patients), with a total of […] available for analysis.

[4] = tested on: leukemia, diffuse large B-cell lymphoma, other lymphomas or multiple myeloma; assay: Objective responses in patients; type: in vivo, human; conditions: patients receiving 10 or 20 mg per day
Source text: With regard to the compound of Formula (1), an effective dose is a dose that inhibits a protein in the bromodomain and extraterminal protein family to a sufficient degree that a desired objective response is observed. An objective response may be a complete response (all detectable tumor or blast cell has disappeared), a partial response (roughly corresponds to at least a 50% decrease in the total tumor volume or blast cell amount but with evidence of some residual disease still remaining), or a minor response (roughly means a small amount of tumor shrinkage or blast cell reduction). Thus, an objective response can include a response where blast cell amount reduction is observed, or where tumor shrinkage is observed in the patient.
as §1
Compound of Formula (1) once-a-day doses of 10, 20, 40, 80, 120 and 160 mg and twice-a-day doses of 40 mg were administered to patients with leukemia, diffuse large B-cell lymphoma, other lymphomas or multiple myeloma. In this study, objective responses were not observed in patients receiving 10 or 20 mg per day.

[5] = 10 mg QD oral, n = 8, derived from EBE
[6] = 20 mg QD oral, n = 6, derived from EBE
[7] = 40 mg BID oral, n = 13, derived from EBE
[8] = 40 mg QD oral, n = 8, derived from EBE
[9] = 80 mg QD oral, n = 11, derived from EBE
[10] = 120 mg QD oral, n = 30, derived from EBE
[11] = 160 mg QD oral, n = 5, derived from EBE
[12] = PPK structural model, 1-compartment open model, 81 patients, all dose levels

CL [mean +/- SD] [3, 5]: 8.53 L/h
V [mean +/- SD] [3, 5]: 72.1 L
Cmin [mean +/- SD] ([3]; 10 mg QD oral, n = 8, observed values): 0.0225 µg/mL
CL [mean +/- SD] [3, 6]: 7.06 L/h
V [mean +/- SD] [3, 6]: 57.6 L
Cmin [mean +/- SD] ([3]; 20 mg QD oral, n = 6, observed values): 0.0505 µg/mL
CL [mean +/- SD] [3, 7]: 6.57 L/h
V [mean +/- SD] [3, 7]: 57.46 L
Cmin [mean +/- SD] ([3]; 40 mg BID oral, n = 13, observed values): 0.35116 µg/mL
CL [mean +/- SD] [3, 8]: 7.66 L/h
V [mean +/- SD] [3, 8]: 58.65 L
Cmin [mean +/- SD] ([3]; 40 mg QD oral, n = 8, observed values): 0.0477 µg/mL
CL [mean +/- SD] [3, 9]: 7.83 L/h
V [mean +/- SD] [3, 9]: 71.14 L
Cmin [mean +/- SD] ([3]; 80 mg QD oral, n = 11, observed values): 0.1137 µg/mL
CL [mean +/- SD] [3, 10]: 7.81 L/h
V [mean +/- SD] [3, 10]: 63.32 L
Cmin [mean +/- SD] ([3]; 120 mg QD oral, n = 30, observed values): 0.3254 µg/mL
CL [mean +/- SD] [3, 11]: 12.10 L/h
V [mean +/- SD] [3, 11]: 96.66 L
Cmin [mean +/- SD] ([3]; 160 mg QD oral, n = 5, observed values): 0.215 µg/mL
absorption constant (Ka) [3, 12]: 0.74 h⁻¹
apparent clearance (CL/F) [3, 12]: 8.45 L/h
apparent distribution volume (V/F) [3, 12]: 71.7 L
half-life ([3]; both sexes, human, plasma, oral, all patients, read-out: Mean elimination half-life (converted)): 5.8 h
AUC(0-t) ([3]; both sexes, human, plasma, po, 10 mg, 10 mg QD oral, n = 8, derived from EBE): 1.19 µg·h/mL
AUC(0-t) ([3]; both sexes, human, plasma, po, 20 mg, 20 mg QD oral, n = 6, derived from EBE): 2.93 µg·h/mL
AUC(0-t) ([3]; both sexes, human, plasma, po, 40 mg, 40 mg BID oral, n = 13, values doubled to mimic 80 mg (2 × 40 mg)): 13.1 µg·h/mL
AUC(0-t) ([3]; both sexes, human, plasma, po, 40 mg, 40 mg QD oral, n = 8, derived from EBE): 5.5 µg·h/mL
AUC(0-t) ([3]; both sexes, human, plasma, po, 80 mg, 80 mg QD oral, n = 11, derived from EBE): 12.5 µg·h/mL
AUC(0-t) ([3]; both sexes, human, plasma, po, 120 mg, 120 mg QD oral, n = 30, derived from EBE): 17.2 µg·h/mL
AUC(0-t) ([3]; both sexes, human, plasma, po, 160 mg, 160 mg QD oral, n = 5, derived from EBE): 13.9 µg·h/mL
Cmax ([3]; both sexes, human, plasma, 40 mg BID oral, n = 13, derived from EBE): 0.55 µg/mL
Cmax ([3]; both sexes, human, plasma, 80 mg QD oral, n = 11, derived from EBE): 1.15 µg/mL
Cmax ([3]; both sexes, human, plasma, 120 mg QD oral, n = 30, derived from EBE): 1.47 µg/mL
Cmax ([3]; both sexes, human, plasma, 160 mg QD oral, n = 5, derived from EBE): 1.29 µg/mL
Tmax ([3]; both sexes, human, plasma, oral, all dose levels): 1 to 4 h
half-life ([3]; human, plasma, po, 10 mg, 10 mg QD oral, n = 8, derived from EBE, read-out: T1/2 [mean +/- SD] (converted)): 5.84 h
half-life ([3]; human, plasma, po, 20 mg, 20 mg QD oral, n = 6, derived from EBE, read-out: T1/2 [mean +/- SD] (converted)): 5.63 h
half-life ([3]; human, plasma, po, 40 mg, 40 mg BID oral, n = 13, derived from EBE, read-out: T1/2 [mean +/- SD] (converted)): 6.22 h
half-life ([3]; human, plasma, po, 40 mg, 40 mg QD oral, n = 8, derived from EBE, read-out: T1/2 [mean +/- SD] (converted)): 5.33 h
half-life ([3]; human, plasma, po, 80 mg, 80 mg QD oral, n = 11, derived from EBE, read-out: T1/2 [mean +/- SD] (converted)): 5.51 h
half-life ([3]; human, plasma, po, 120 mg, 120 mg QD oral, n = 30, derived from EBE, read-out: T1/2 [mean +/- SD] (converted)): 5.91 h
half-life ([3]; human, plasma, po, 160 mg, 160 mg QD oral, n = 5, derived from EBE, read-out: T1/2 [mean +/- SD] (converted)): 5.48 h
Cmax ([3]; human, plasma, 10 mg QD oral, n = 8, derived from EBE): 0.131 µg/mL
Cmax ([3]; human, plasma, 20 mg QD oral, n = 6, derived from EBE): 0.275 µg/mL
Cmax ([3]; human, plasma, 40 mg QD oral, n = 8, derived from EBE): 0.627 µg/mL
SMILES: Cc1sc2c(c1C)C(c1ccc(Cl)cc1)=N[C@@H](CC(=O)Nc1ccc(O)cc1)c1nnc(C)n1-2 [Compound of Formula (1), (S)-2-(4-(4-chlorophenyl)-2,3,9-trimethyl-6H-thieno[3,2-f][1,2,4]triazolo[4,3-a][1,4]diazepin-6-yl)-N-(4-hydroxyphenyl)acetamide]
inhibition of binding of acetylated histone H4 to BET proteins [1]: inhibit the binding
Dose Limiting Toxicity, observed toxicity ([2]; Acute Leukemia, 20 mg QD, 6 patients): 0 patients
Dose Limiting Toxicity, observed toxicity ([2]; Acute Leukemia, 40 mg BID, 6 patients): 0 patients
Dose Limiting Toxicity, observed toxicity ([2]; Acute Leukemia, 40 mg QD, 4 patients): 0 patients
Dose Limiting Toxicity, observed toxicity ([2]; Acute Leukemia, 80 mg QD, 4 patients): 0 patients
Dose Limiting Toxicity, observed toxicity ([2]; Acute Leukemia, 120 mg QD, 11 patients): 0 patients
Dose Limiting Toxicity, observed toxicity ([2]; Acute Leukemia, 160 mg QD, 5 patients (diarrhea and fatigue/anorexia)): 2 patients
Dose Limiting Toxicity, observed toxicity ([2]; Older Adult Hematologic Malignancies, 20 mg QD, 6 patients): 0 patients
Dose Limiting Toxicity, observed toxicity ([2]; Older Adult Hematologic Malignancies, 40 mg BID, 6 patients (thrombocytopenia)): 5 patients
Dose Limiting Toxicity, observed toxicity ([2]; Older Adult Hematologic Malignancies, 40 mg QD, 3 patients): 0 patients
Dose Limiting Toxicity, observed toxicity ([2]; Older Adult Hematologic Malignancies, 80 mg QD, 7 patients (thrombocytopenia)): 2 patients
Dose Limiting Toxicity, observed toxicity ([2]; Older Adult Hematologic Malignancies, 120 mg QD, 18 patients (thrombocytopenia, hypo Na, neutropenia, fatigue, diarrhea, mucositis)): 10 patients
objective responses [4]: not observed
